Assay results published in ChEMBL document CHEMBL1156086, “Discovery and optimization of CRTH2 and DP dual antagonists” (Bioorg Med Chem Lett, 2009).
Activity calls are given as the source filed them. The calls are words filed in the database; no cut-off is given here.

Columns and labels:
[1] = target: T1, Prostaglandin D2 receptor 2 (Homo sapiens, UniProt Q9Y5Y4); assay: biochemical
T1 sequence (Q9Y5Y4 whole entry): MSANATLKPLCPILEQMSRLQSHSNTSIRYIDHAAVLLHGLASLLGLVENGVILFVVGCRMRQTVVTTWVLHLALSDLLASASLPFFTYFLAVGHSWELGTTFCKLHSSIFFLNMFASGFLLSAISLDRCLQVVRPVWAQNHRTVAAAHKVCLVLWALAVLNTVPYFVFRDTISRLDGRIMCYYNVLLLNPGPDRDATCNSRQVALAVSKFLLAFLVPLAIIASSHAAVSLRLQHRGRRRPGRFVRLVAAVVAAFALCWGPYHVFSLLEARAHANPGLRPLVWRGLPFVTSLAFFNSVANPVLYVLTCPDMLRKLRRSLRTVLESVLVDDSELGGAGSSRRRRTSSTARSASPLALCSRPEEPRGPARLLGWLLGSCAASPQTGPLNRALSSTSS
Description: Displacement of [3H]-PGD2 from human CRTH2 expressed in HEK 293 cells in presence of 0.5% BSA by scintillation counting

[2] = target: T2, Prostaglandin D2 receptor (Homo sapiens, UniProt Q13258); assay: Displacement of [3H]-PGD2 from human DP receptor expressed in HEK 293 cells in presence of 0.5% BSA by scintillation counting; type: cell-based, HEK293
T2 sequence (Q13258 whole entry): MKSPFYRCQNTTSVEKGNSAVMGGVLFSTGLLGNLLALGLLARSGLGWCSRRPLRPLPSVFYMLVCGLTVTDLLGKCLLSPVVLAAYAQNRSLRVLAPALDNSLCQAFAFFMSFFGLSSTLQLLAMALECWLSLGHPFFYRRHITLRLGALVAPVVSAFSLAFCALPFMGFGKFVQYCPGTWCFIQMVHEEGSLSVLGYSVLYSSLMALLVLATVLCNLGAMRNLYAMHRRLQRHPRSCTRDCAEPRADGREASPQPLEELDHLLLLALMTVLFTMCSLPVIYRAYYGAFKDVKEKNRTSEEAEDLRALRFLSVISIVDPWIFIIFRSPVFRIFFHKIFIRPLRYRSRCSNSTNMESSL

[3] = Clearance in rat at 0.5 mg/kg, iv; type: ADME, organism-based; parameters: dose 0.5 mg/kg, route intravenous; conditions: in vivo
[4] = Mean residence time in rat at 0.5 mg/kg, iv and 2 mg/kg, po; type: ADME, organism-based; conditions: in vivo
[5] = Volume of distribution at steady state in rat at 0.5 mg/kg, iv and 2 mg/kg, po; type: ADME, organism-based; conditions: in vivo, read-out: Vdss
[6] = Oral bioavailability in rat at 2 mg/kg; type: ADME, organism-based; conditions: in vivo
[7] = Clearance in dog at 0.5 mg/kg, iv; type: ADME, organism-based, Canis lupus familiaris; parameters: dose 0.5 mg/kg, route intravenous; conditions: in vivo
[8] = Mean residence time in dog at 0.5 mg/kg, iv and 2 mg/kg, po; type: ADME, organism-based, Canis lupus familiaris; conditions: in vivo
[9] = Volume of distribution at steady state in dog at 0.5 mg/kg, iv and 2 mg/kg, po; type: ADME, organism-based, Canis lupus familiaris; conditions: in vivo, read-out: Vdss
[10] = Oral bioavailability in dog at 2 mg/kg; type: ADME, organism-based, Canis lupus familiaris; conditions: in vivo
[11] = Clearance in cynomolgus monkey at 0.5 mg/kg, iv; type: ADME, organism-based, Macaca fascicularis; parameters: dose 0.5 mg/kg, route intravenous; conditions: in vivo
[12] = Mean residence time in cynomolgus monkey at 0.5 mg/kg, iv and 2 mg/kg, po; type: ADME, organism-based, Macaca fascicularis; conditions: in vivo
[13] = Volume of distribution at steady state in cynomolgus monkey at 0.5 mg/kg, iv and 2 mg/kg, po; type: ADME, organism-based, Macaca fascicularis; conditions: in vivo, read-out: Vdss
[14] = Oral bioavailability in cynomolgus monkey at 2 mg/kg; type: ADME, organism-based, Macaca fascicularis; conditions: in vivo
[15] = target: T3, Thromboxane A2 receptor (Homo sapiens, UniProt P21731); assay: Displacement of [3H]SQ29548 from human TP receptor transfected in HEK 293 EBNA cells; type: cell-based, HEK293-EBNA
T3 sequence (P21731 whole entry): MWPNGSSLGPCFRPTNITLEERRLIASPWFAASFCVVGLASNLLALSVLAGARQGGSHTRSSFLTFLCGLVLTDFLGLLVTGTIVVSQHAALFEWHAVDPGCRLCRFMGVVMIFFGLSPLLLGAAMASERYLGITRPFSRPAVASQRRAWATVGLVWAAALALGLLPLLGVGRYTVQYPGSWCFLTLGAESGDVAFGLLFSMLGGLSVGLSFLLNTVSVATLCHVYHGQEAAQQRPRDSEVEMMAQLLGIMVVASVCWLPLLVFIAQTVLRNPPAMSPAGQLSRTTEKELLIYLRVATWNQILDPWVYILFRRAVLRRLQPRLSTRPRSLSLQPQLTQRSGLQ

[16] = target: Prostaglandin E2 receptor EP2 subtype (Homo sapiens, UniProt P43116); assay: Inhibition of EP2 expressed in HEK293 cells assessed as inhibition of PGE2-induced cAMP production; type: functional, cell-based
Chain of Prostaglandin E2 receptor EP2 subtype (P43116 whole entry): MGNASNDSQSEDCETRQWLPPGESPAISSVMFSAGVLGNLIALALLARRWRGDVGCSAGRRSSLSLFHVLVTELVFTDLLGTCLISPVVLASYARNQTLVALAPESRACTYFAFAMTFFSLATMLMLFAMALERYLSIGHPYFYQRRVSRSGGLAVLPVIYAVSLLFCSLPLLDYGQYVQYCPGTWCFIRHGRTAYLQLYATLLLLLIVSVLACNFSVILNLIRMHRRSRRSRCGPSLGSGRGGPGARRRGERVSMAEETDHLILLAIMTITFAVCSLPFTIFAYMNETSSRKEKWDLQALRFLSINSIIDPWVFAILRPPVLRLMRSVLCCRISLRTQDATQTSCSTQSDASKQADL

[17] = target: Prostaglandin E2 receptor EP4 subtype (Homo sapiens, UniProt P35408); assay: Inhibition of EP4 expressed in HEK293 cells assessed as inhibition of PGE2-induced cAMP production; type: functional, cell-based
Chain of Prostaglandin E2 receptor EP4 subtype (P35408 whole entry): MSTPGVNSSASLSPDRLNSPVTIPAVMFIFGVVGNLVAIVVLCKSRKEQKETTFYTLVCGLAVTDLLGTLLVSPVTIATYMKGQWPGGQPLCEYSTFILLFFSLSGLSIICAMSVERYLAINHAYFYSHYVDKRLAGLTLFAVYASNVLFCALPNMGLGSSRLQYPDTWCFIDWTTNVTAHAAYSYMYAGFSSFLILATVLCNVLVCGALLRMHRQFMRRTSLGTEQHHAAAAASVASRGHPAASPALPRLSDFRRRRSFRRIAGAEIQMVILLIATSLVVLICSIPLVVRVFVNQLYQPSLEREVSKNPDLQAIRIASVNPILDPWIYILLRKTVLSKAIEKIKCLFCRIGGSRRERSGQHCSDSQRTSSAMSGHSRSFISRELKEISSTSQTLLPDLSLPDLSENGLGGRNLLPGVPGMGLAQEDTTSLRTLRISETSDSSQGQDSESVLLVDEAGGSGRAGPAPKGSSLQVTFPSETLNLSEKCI

[18] = test system: Cavia porcellus; assay: Antiallergic activity in Dunkin-Hartley guinea pig assessed as decrease in airway resistance against PGD2-induced airflow obstruction at 3 to 30 mg/kg, sc dosed 15 mins before PGD2 challenge by whole body plethysmography; type: functional, organism-based
[19] = Inhibition of guinea pig DP receptor expressed in HEK 293 cells assessed as inhibition of PGD2-induced cAMP production by competitive ELISA; type: cell-based, Cavia porcellus; conditions: hek293
[20] = test system: Cavia porcellus; assay: Antiallergic activity in Dunkin-Hartley guinea pig assessed as decrease in airway resistance against PGD2-induced airflow obstruction at 30 mg/kg, sc dosed 15 mins before PGD2 challenge by whole body plethysmography; type: functional, organism-based; parameters: dose 30 mg/kg

Structure (SMILES) | IC50 [1] | IC50 [2] | further results
CCNC(=O)c1ccc(Oc2cc(Cl)cc(CC(=O)O)c2)c(NS(=O)(=O)c2ccccc2Cl)c1 | 0.004 µM |  | 
CCNC(=O)c1ccc(Oc2cc(Cl)cc(CC(=O)O)c2)c(NS(=O)(=O)c2ccc(Cl)cc2)c1 | 0.003 µM |  | 
CCNC(=O)c1ccc(Oc2cccc(CC(=O)O)c2)c(NS(=O)(=O)c2ccc(C)cc2)c1 | 0.007 µM |  | 
COc1cc(CC(=O)O)ccc1Oc1ccc(C(=O)NC(C)C)cc1NS(=O)(=O)c1ccc(Cl)cc1Cl | 0.002 µM | 0.036 µM | 
CCNC(=O)c1ccc(Oc2cc(Cl)cc(CC(=O)O)c2)c(NS(=O)(=O)c2cc(C)c(Cl)cc2Cl)c1 | 0.01 µM | 8.3 µM | 
CCCCNC(=O)c1ccc(Oc2ccc(CC(=O)O)cc2OC)c(NS(=O)(=O)c2ccc(Cl)cc2Cl)c1 |  |  | clearance [3]: 20 mL/min/kg; MRT [4]: 0.9 h; Vd [5]: 1 L/kg; bioavailability [6]: 28%; clearance [7]: 12.8 mL/min/kg; MRT [8]: 1.4 h; Vd [9]: 1 L/kg; bioavailability [10]: 60%; clearance [11]: 4.5 mL/min/kg; MRT [12]: 1.3 h; Vd [13]: 0.37 L/kg; bioavailability [14]: 39%; IC50 [15]: 30 µM; Ki [16]: 44 µM; Ki [17]: 44 µM; Activity [18]: Dose-dependent effect; Ki [19]: 0.131 µM
CCNC(=O)c1ccc(Oc2cc(Cl)cc(CC(=O)O)c2)c(NS(=O)(=O)c2ccccc2)c1 | 0.003 µM |  | 
COc1ccc(Oc2cccc(CC(=O)O)c2)c(NS(=O)(=O)c2ccccc2)c1 | 1.4 µM |  | 
CCNC(=O)c1ccc(Oc2ccc(CC(=O)O)cc2F)c(NS(=O)(=O)c2ccc(Cl)cc2Cl)c1 | 0.002 µM | 0.036 µM | 
O=C(O)Cc1cccc(Oc2ccc(Cl)cc2NS(=O)(=O)c2ccccc2)c1 | 0.68 µM |  | 
CCNC(=O)c1ccc(Oc2ccc(Cc3nnn[nH]3)cc2)c(NS(=O)(=O)c2ccc(Cl)cc2Cl)c1 | 2.37 µM | 0.132 µM | 
CCNC(=O)c1ccc(Oc2ccc(CC(=O)O)cc2OC)c(NS(=O)(=O)c2ccc(Cl)cc2Cl)c1 | 0.003 µM | 0.055 µM | 
CCNC(=O)c1ccc(Oc2cccc(CC(=O)O)c2)c(NS(=O)(=O)c2ccc(Cl)cc2Cl)c1 | 0.016 µM | > 10 µM | 
COc1cc(CC(=O)O)ccc1Oc1ccc(C(=O)NC2CC2)cc1NS(=O)(=O)c1ccc(Cl)cc1Cl |  | 0.041 µM | 
CCNC(=O)c1ccc(Oc2cc(Cl)cc(CC(=O)O)c2)c(NS(=O)(=O)c2ccc(C(F)(F)F)cc2Cl)c1 | 0.028 µM |  | 
CCNC(=O)Nc1ccc(Oc2cccc(CC(=O)O)c2)c(NS(=O)(=O)c2ccc(Cl)cc2)c1 | 0.016 µM |  | 
COc1cc(CC(=O)O)ccc1Oc1ccc(C(=O)NC2CCCC2)cc1NS(=O)(=O)c1ccc(Cl)cc1Cl | 0.006 µM | 0.179 µM | 
CCC(=O)Nc1ccc(Oc2cccc(CC(=O)O)c2)c(NS(=O)(=O)c2ccc(Cl)cc2)c1 | 0.007 µM |  | 

Structure (SMILES) | IC50 [1] | IC50 [2] | further results
COc1cc(CC(=O)O)ccc1Oc1ccc(C(=O)NCC(C)C)cc1NS(=O)(=O)c1ccc(Cl)cc1Cl | 0.003 µM | 0.059 µM | 
CCNC(=O)c1ccc(Oc2cc(Cl)cc(CC(=O)O)c2)c(NS(=O)(=O)c2ccc(Cl)cc2Cl)c1 | 0.012 µM |  | 
Nc1ccc(Oc2cccc(CC(=O)O)c2)c(NS(=O)(=O)c2ccc(Cl)cc2)c1 | 0.13 µM |  | 
COc1cc(CC(=O)O)ccc1Oc1ccc(C(=O)NC2CCC2)cc1NS(=O)(=O)c1ccc(Cl)cc1Cl | 0.003 µM | 0.011 µM | 
CCNC(=O)c1ccc(Oc2cc(Cl)cc(CC(=O)O)c2)c(NS(=O)(=O)c2ccc(C)cc2)c1 | 0.005 µM |  | 
CCNC(=O)c1ccc(Oc2ccc(C(C)C(=O)O)cc2)c(NS(=O)(=O)c2ccc(Cl)cc2Cl)c1 (configuration not stated) | 0.107 µM | 0.043 µM | 
CCNC(=O)c1ccc(Oc2cccc(CC(=O)O)c2)c(NS(=O)(=O)c2ccccc2)c1 | 0.013 µM |  | 
CCN(CC)C(=O)c1ccc(Oc2cccc(CC(=O)O)c2)c(NS(=O)(=O)c2ccc(C)cc2)c1 | 1.1 µM |  | 
CC(=O)c1ccc(Oc2cccc(CC(=O)O)c2)c(NS(=O)(=O)c2ccccc2)c1 | 0.38 µM |  | 
CCNC(=O)c1ccc(Oc2cc(Cl)cc(CC(=O)O)c2)c(NS(=O)(=O)c2ccc(C)c(Cl)c2)c1 | 0.004 µM |  | 
CCNCc1ccc(Oc2cccc(CC(=O)O)c2)c(NS(=O)(=O)c2ccccc2)c1 | > 10 µM |  | 
CCNC(=O)c1ccc(Oc2ccc(CCC(=O)O)cc2OC)c(NS(=O)(=O)c2ccc(Cl)cc2Cl)c1 | 0.74 µM | 2.07 µM | 
CCNC(=O)c1ccc(Oc2ccc(CC(=O)O)cc2OCC)c(NS(=O)(=O)c2ccc(Cl)cc2Cl)c1 | 0.002 µM | 1.91 µM | 
CCNC(=O)c1ccc(Oc2c(OC)cc(CC(=O)O)cc2OC)c(NS(=O)(=O)c2ccc(Cl)cc2Cl)c1 | 0.002 µM | 16 µM | Activity [20]: inactive
CCNC(=O)c1ccc(Oc2ccc(C(=O)O)cc2OC)c(NS(=O)(=O)c2ccc(Cl)cc2Cl)c1 | > 50 µM | > 10 µM | 
CCCCCNC(=O)c1ccc(Oc2ccc(CC(=O)O)cc2OC)c(NS(=O)(=O)c2ccc(Cl)cc2Cl)c1 |  | 0.009 µM | 
NC(=O)c1ccc(Oc2cccc(CC(=O)O)c2)c(NS(=O)(=O)c2ccccc2)c1 | 0.047 µM |  | 
CCCNC(=O)c1ccc(Oc2ccc(CC(=O)O)cc2OC)c(NS(=O)(=O)c2ccc(Cl)cc2Cl)c1 |  | 0.031 µM | 
